Legend:
Assay in all cases: biochemical
Adenosine receptor A2a [1] = target: Adenosine receptor A2a (Homo sapiens, UniProt P29274, V84L)
Adenosine receptor A2a [2] = target: Adenosine receptor A2a (Homo sapiens, UniProt P29274, H250N)
Adenosine receptor A2a [3] = target: Adenosine receptor A2a (Homo sapiens, UniProt P29274)
Adenosine receptor A2a (Homo sapiens, UniProt P29274), sequence (P29274 whole entry): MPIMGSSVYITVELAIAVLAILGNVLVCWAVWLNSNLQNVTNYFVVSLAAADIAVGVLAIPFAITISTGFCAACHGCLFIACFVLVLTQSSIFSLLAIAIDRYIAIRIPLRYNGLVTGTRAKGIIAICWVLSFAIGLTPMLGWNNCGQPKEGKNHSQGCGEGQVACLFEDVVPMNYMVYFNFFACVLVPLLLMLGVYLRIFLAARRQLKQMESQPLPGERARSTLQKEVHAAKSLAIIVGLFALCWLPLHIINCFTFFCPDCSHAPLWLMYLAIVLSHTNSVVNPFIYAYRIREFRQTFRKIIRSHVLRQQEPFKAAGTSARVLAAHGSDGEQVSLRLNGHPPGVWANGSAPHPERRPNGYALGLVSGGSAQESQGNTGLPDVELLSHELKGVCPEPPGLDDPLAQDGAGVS
Description: Binding affinity for HA-tagged wild type human Adenosine A2A receptor (WT) using [3H]CGS-21680 as radioligand expressed in COS-7 cells

Adenosine receptor A2a (Homo sapiens, UniProt P29274, H250N), sequence (P29274 whole entry H250N): as the sequence (P29274 whole entry) above, with H250N counted along it
Adenosine receptor A2a (Homo sapiens, UniProt P29274, V84L), sequence (P29274 whole entry V84L): as the sequence (P29274 whole entry) above, with V84L counted along it

Row | Ki (Adenosine receptor A2a [1]) [µM] | Ki (Adenosine receptor A2a [2]) [µM] | Ki (Adenosine receptor A2a [3]) [µM] | Compound
1 | 0.0189 | 0.0359 | 0.0381 | COc1cc(OC)cc(C(CNc2ncnc3c2ncn3[C@@H]2O[C@H](CO)[C@@H](O)[C@H]2O)c2ccccc2C)c1 (stereo not given in full)
2 | 18.1 | 33 | 16.7 | O=c1c(O)c(-c2ccccc2)oc2cc(O)cc(O)c12 [GALANGIN]
3 | 72.6 | 54.3 | 106 | CCOC(=O)c1sc(SCc2ccccc2)c2c1CCCC2=O

Row | Compound | Ki (Adenosine receptor A2a [1]) [µM] | Ki (Adenosine receptor A2a [2]) [µM] | Ki (Adenosine receptor A2a [3]) [µM]
4 | N=C(N)NC(=O)c1nc(Cl)c(N)nc1N [AMILORIDE] | 11.6 | 3.28 | 12
5 | COC(=O)C1=C(C)NC(C)=C(C(=O)OC)C1c1ccccc1[N+](=O)[O-] [NIFEDIPINE] | 22.2 | 22.2 | 244

— ChEMBL document CHEMBL1130114 (J Med Chem, 1997)
